Data reported in patent publication US10968177B2, “Tricyclic sulfones as RORγ modulators” (BRISTOL-MYERS SQUIBB COMPANY, priority 2016, dated 2021).

target: T1, RORγ (Homo sapiens, UniProt P51449); assay: RORγ Gal4 reporter assay (Gal4-luciferase reporter in Jurkat cells); format: cell-based; settings: inhibition of luminescence (inverse agonist activity); Jurkat cells stably over-expressing hRORγ; incubated overnight
T1 construct: Jurkat pEx/Gal/hRORγ CLBD/HYG pG5luc/blast; expressed in transfected cells
T1 sequence (P51449 269-508 limits assumed): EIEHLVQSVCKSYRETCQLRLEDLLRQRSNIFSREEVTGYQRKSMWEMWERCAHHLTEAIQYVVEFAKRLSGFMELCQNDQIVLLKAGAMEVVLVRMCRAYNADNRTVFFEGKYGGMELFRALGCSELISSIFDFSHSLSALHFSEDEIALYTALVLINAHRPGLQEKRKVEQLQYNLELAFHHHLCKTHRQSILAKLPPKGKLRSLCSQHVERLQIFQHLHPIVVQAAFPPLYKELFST
Method: General RORγ Gal4 Reporter Assay
Inverse agonist activity of potential ligands to RORγ was measured by inhibition of luminescence in a Gal4-luciferase reporter assay in Jurkat cells.
Jurkat cells stably over-expressing the RORγ receptor, Jurkat pEx/Gal/hRORγ CLBD/HYG pG5luc/blast, were plated at a concentration of 10,000 cells/well in a 384-well solid white cell culture plate (Perkin Elmer #6007899) in assay buffer RPMI 1640 (Gibco 11875-085 1L) containing 0.1% BSA, 100×HEPES (Gibco 15360-080), 100 mM sodium pyruvate (Gibco 11360-040), […] Hygromycin B (Invitrogen 10687-010) and 10 mg/mL blasticidin (Invitrogen R210-01). 100 nL of test compound in a 3-fold serial dilution, with final concentrations ranging from 40 μM to 0.67 nM, were added to the cells which were then incubated overnight.
The following day, cells were lysed with 10 μL of Steady-Glo Luciferase Assay System (Promega Cat. No. EZ550), and analyzed immediately. IC50 values were determined. The IC50 value is defined as the concentration of test compound needed to reduce luciferase activity by 50% and is calculated using the four parameter logistic equation to fit the normalized data.

| SMILES | IC50 [nM] |
| --- | --- |
| N=S1(=O)CCC(O)(C(=O)N2CC[C@@]3(S(=O)(=O)c4ccc(F)cc4)c4ccc(C(F)(C(F)(F)F)C(F)(F)F)cc4CC[C@@H]23)CC1 (mixture of isomers) [Example 9, ((3aR)-9b-((4-fluorophenyl)sulfonyl)-7-(perfluoropropan-2-yl)-4,5-dihydro-1H-benzo[e]indol-3(2H,3aH,9bH)-yl)(4-hydroxy-1-imino-1-oxidotetrahydro-2H-thiopyran-4-yl)methanone] | 14 |
| N=S1(=O)CCC(C(=O)N2CC[C@@]3(S(=O)(=O)c4ccc(F)cc4)c4ccc(C(F)(C(F)(F)F)C(F)(F)F)cc4CC[C@@H]23)CC1 (mixture of isomers) [Example 7, ((3aR,9bR)-9b-((4-fluorophenyl)sulfonyl)-7-(perfluoropropan-2-yl)-1,2,3a,4,5,9b-hexahydro-3H-benzo[e]indol-3-yl)(1-imino-1-oxidohexahydro-1λ^6-thiopyran-4-yl)methanone] | 28 |
| CC(=O)N=S1(=O)CCC(C(=O)N2CC[C@@]3(S(=O)(=O)c4ccc(F)cc4)c4ccc(C(F)(C(F)(F)F)C(F)(F)F)cc4CC[C@@H]23)CC1 (single isomer, unassigned) [Example 15] | 49 |
| N=S1(=O)CCC(C(=O)N2CCC3(S(=O)(=O)c4cccc(Cl)c4)c4ccc(C(F)(C(F)(F)F)C(F)(F)F)cc4CCC23)CC1 (single isomer, unassigned) [Example 2] | 57 |
| N=S1(=O)CCC(C(=O)N2CCC3(S(=O)(=O)c4ccc(F)cc4)c4ccc(C(F)(C(F)(F)F)C(F)(F)F)cc4OCC23)CC1 (single isomer, unassigned) [Example 4] | 246 |
| CN1CC2N(C(=O)C3CCS(=N)(=O)CC3)CCC2(S(=O)(=O)c2ccc(F)cc2)c2ccc(C(F)(C(F)(F)F)C(F)(F)F)cc21 (stereo not shown) [Example 17] | 21 |
| N=S1(=O)CCC(C(=O)N2CCC3(S(=O)(=O)c4ccc(Cl)cc4)c4ccc(C(F)(C(F)(F)F)C(F)(F)F)cc4CCC23)CC1 (single isomer, unassigned) [Example 5] | 58 |
| N=S1(=O)CCC(F)(C(=O)N2CC[C@@]3(S(=O)(=O)c4ccc(F)cc4)c4ccc(C(F)(C(F)(F)F)C(F)(F)F)cc4CC[C@@H]23)CC1 (single isomer, unassigned) [Example 19] | 60 |
| N=S1(=O)CCC(C(=O)N2CCC3(S(=O)(=O)c4ccc(F)cc4)c4ccc(C(F)(C(F)(F)F)C(F)(F)F)cc4NCC23)CC1 (single isomer, unassigned) [Example 6, (9b-((4-fluorophenyl)sulfonyl)-7-(perfluoropropan-2-yl)-1,2,3a,4,5,9b-hexahydro-3H-pyrrolo[2,3-c]quinolin-3-yl)(1-imino-1-oxidohexahydro-1λ^6-thiopyran-4-yl)methanone] | 51 |

Continued by falling IC50, values first:

| IC50 [nM] | SMILES |
| --- | --- |
| 77 | CC(=O)N=S1(=O)CCC(C(=O)N2CC[C@@]3(S(=O)(=O)c4ccc(F)cc4)c4ccc(C(F)(C(F)(F)F)C(F)(F)F)cc4CC[C@@H]23)CC1 (single isomer, unassigned) [Example 16] |
| 56 | N=S1(=O)CCC(C(=O)N2CCC3(S(=O)(=O)c4ccccc4)c4ccc(C(F)(C(F)(F)F)C(F)(F)F)cc4CCC23)CC1 (single isomer, unassigned) [Example 3] |
| 56 | N=S1(=O)CCC(C(=O)N2CC[C@@]3(S(=O)(=O)c4ccc(F)cc4)c4ccc(C(F)(C(F)(F)F)C(F)(F)F)cc4CC[C@@H]23)CC1 (single isomer, unassigned) [Example 12] |
| 52 | N=S1(=O)CCC(F)(C(=O)N2CC[C@@]3(S(=O)(=O)c4ccc(F)cc4)c4ccc(C(F)(C(F)(F)F)C(F)(F)F)cc4CC[C@@H]23)CC1 (single isomer, unassigned) [Example 18] |
| 48 | N#CC1(C(=O)N2CC[C@@]3(S(=O)(=O)c4ccc(F)cc4)c4ccc(C(F)(C(F)(F)F)C(F)(F)F)cc4CC[C@@H]23)CCS(=N)(=O)CC1 (stereo partly shown) [Example 10] |
| 40 | N=S1(=O)CCC(C(=O)N2CCC3(S(=O)(=O)c4cccc(F)c4)c4ccc(C(F)(C(F)(F)F)C(F)(F)F)cc4CCC23)CC1 (single isomer, unassigned) [Example 1, (9b-((3-fluorophenyl)sulfonyl)-7-(perfluoropropan-2-yl)-1,2,3a,4,5,9b-hexahydro-3H-benzo[e]indol-3-yl)(1-imino-1-oxidohexahydro-1λ^6-thiopyran-4-yl)methanone] |
| 40 | CN=S1(=O)CCC(C(=O)N2CC[C@@]3(S(=O)(=O)c4ccc(F)cc4)c4ccc(C(F)(C(F)(F)F)C(F)(F)F)cc4CC[C@@H]23)CC1 (single isomer, unassigned) [Example 14] |
| 39 | N=S1(=O)CCC(C(=O)N2CC[C@@]3(S(=O)(=O)c4ccc(F)cc4)c4ccc(C(F)(C(F)(F)F)C(F)(F)F)cc4CC[C@@H]23)CC1 (single isomer, unassigned) [Example 11] |
| 34 | CC1(C(=O)N2CC[C@@]3(S(=O)(=O)c4ccc(F)cc4)c4ccc(C(F)(C(F)(F)F)C(F)(F)F)cc4CC[C@@H]23)CCS(=N)(=O)CC1 (stereo partly shown) [Example 8] |
| 26 | CN=S1(=O)CCC(C(=O)N2CC[C@@]3(S(=O)(=O)c4ccc(F)cc4)c4ccc(C(F)(C(F)(F)F)C(F)(F)F)cc4CC[C@@H]23)CC1 (single isomer, unassigned) [Example 13] |
